Activity calls are given as the source filed them. No rule for the calls is given here.

A short description of the first experiment: blockers of VCAM1 upregulation by TNFa – imaging, TNFa stimulus, retest and dose response, confirmation (AID 1013).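 As to cell count: compound on cells 1 h before TNFa then 24 h more.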 Conditions: TNFa-stimulated cells, VCAM1 expression imaging; at 2 µM; stronger effect = higher value.
A word on the inhibition: it is the drop in the measured response relative to a control, in per cent. `O=C(c1cc(-c2ccncc2)nc2ccc(Br)cc12)N1CCN(c2ccccn2)CC1`: the inhibition is 1.3% (inactive).
Same read-out and setting: the same measure for `O=C(CC(c1ccccc1)c1ccccc1)NCC1CCCO1` (stereo not given): -7.2% (inactive); for `COc1ccc(-c2cc(=O)[nH]c(NCc3ccccc3)n2)cc1`: 15.6% (inactive); for `O=C(NC(Cc1c[nH]c2ccccc12)C(=O)O)c1ccco1` (stereo not given): -11.2% (inactive).
The same measure, in the same setting: the same measure for `CNC(=O)CN(c1ccc(OC)cc1)S(=O)(=O)c1ccc(F)cc1`: 6.8% (inactive).
As for `Cc1ccc(NC(=O)Cn2nnc(-c3ccccc3NC(=O)c3cccs3)n2)cc1`, the inhibition is 9.2% (inactive).
Same read-out and setting: the same measure for `COc1ccc(Cn2nnnc2C(c2cccs2)N2CCSCC2)cc1` (stereo not given): -1.3% (inactive); for `CC(=NCCCO)c1c(O)n(Cc2ccccc2)c(=O)[nH]c1=O`: -13.3% (inactive).
Same read-out and setting: the result for `O=C(O)c1c[nH]c2ccc(S(=O)(=O)N3CCOCC3)cc12` reads 1.4% (inactive); that for `CCOc1cc(S(=O)(=O)Nc2ccccc2CC)ccc1Cl`, -2.9% (inactive); that for `COc1ccc2[nH]c(=O)c(CN(C(=O)c3ccncc3)C(C)C)cc2c1`, -5.2% (inactive).
On the same count and under the same terms, the same measure for `O=C(NCc1ccco1)c1cc(-c2ccc(Cl)cc2)on1`: -6.2% (inactive).
As to `COC1(c2ccccc2)NC(=S)NN=C1c1ccccc1` (stereo not given), the inhibition is -8.1% (inactive).
On the same count and under the same terms, the same measure for `Nc1nc2c3ccccc3nc(Cc3ccccc3)n2n1`: -8.7% (inactive); for `O=C(c1ccc(Cl)cc1)N1CCCOC1`: -7.1% (inactive); for `CC(CCc1ccccc1)NC(=O)c1ccc(Br)o1` (stereo not given): -4.5% (inactive).
The same measure, in the same setting: the same measure for `COc1cc(C2Nc3ccc4ncccc4c3C3=C2C(=O)CCC3)cc(OC)c1O` (stereo not given): -11.9% (inactive).
As for `CC(C)C(=O)Nc1ccc(C(=O)NNC(=O)NC2CCCCC2)cc1`, the inhibition was -6.3% (inactive).
On to `CCOC(=O)C1=C(CSc2nc3c(cc2C#N)CN(C)CC3)OC(N)=C(C#N)C1c1ccccc1` (stereo not given), for which the inhibition was -5.4% (inactive).
The same measure, in the same setting: the result for `COC(=O)c1c(NC(=O)c2ccc(S(=O)(=O)N3CCOCC3)cc2)sc2c1CCN(C)C2` reads -5.4% (inactive); that for `COc1ccccc1-c1cn(S(=O)(=O)c2ccc(C)cc2)nc1N`, 2.2% (inactive); that for `CCOC(=O)Cn1nnnc1CN(CCc1ccccc1)Cc1cc2cc(CC)ccc2[nH]c1=O`, 3.3% (inactive).
`Clc1ccc(C2=Nn3c(nnc3-c3cccnc3)SC2)s1`: the inhibition is 13% (inactive).
Still for that read-out and setting: the same measure for `Clc1ccc(-n2ncc3c(NCc4ccc5c(c4)OCO5)ncnc32)cc1`: 5.1% (inactive); for `O=C1CCSc2cccc3cccc(c23)N1`: 2.8% (inactive).
Same read-out and setting: the result for `C=CCOc1c2ccc(C(=O)NCc3ccccc3OC)cc2nn1C` reads 4.3% (inactive).
On the same count and under the same terms, the result for `O=C1CC(c2ccccc2)Cc2nc3ncnn3cc21` (stereo not given) reads -11.3% (inactive); that for `CN=c1sc2ccccc2n1CC(O)COc1ccccc1` (stereo not given), -13.2% (inactive).
As for `O=C(CS(=O)(=O)c1cn(Cc2cccc(F)c2)c2ccccc12)N1CCCCC1`, the inhibition was -4.4% (inactive).
On the same count and under the same terms, the same measure for `CCC(=O)N1c2ccc(S(=O)(=O)CCC(=O)N3CCn4c3nc3ccccc34)cc2CC1C` (stereo not given): -14.1% (inactive); for `O=[N+]([O-])c1ccc(/C=N/n2c(COc3ccccc3)n[nH]c2=S)cc1`: -9.2% (inactive); for `Cc1ccccc1Cn1nc(C)c(NC(=O)c2cc(-c3cccs3)on2)c1C`: -4.7% (inactive).
Still for that read-out and setting: the same measure for `CCOC(=O)c1cnn(-c2nc(CC)nc3sc4c(c23)CCC4)c1N`: -10.3% (inactive); for `C/C(Cl)=C\Cn1c(NCCCn2ccnc2)nc2c1c(=O)n(C)c(=O)n2C`: 4.7% (inactive); for `OCCNCC(O)Cn1ccc2ccccc21` (stereo not given): -5.6% (inactive).
Still for that read-out and setting: the result for `C=CCn1c(N)c(C(=O)OCC(C)C)c2nc3ccccc3nc21` reads -3.5% (inactive).
On to `CCOc1cc(/C=C2/C(=O)N(c3ccccc3)N=C2C)ccc1OC(=O)c1ccco1`, for which the inhibition was 3.9% (inactive).
The same measure, in the same setting: the result for `CCc1cccc(CC)c1NC(=O)C1SC(=Nc2ccccc2C)C(c2nc3ccccc3s2)=C1N` (stereo not given) reads 3.9% (inactive); that for `Cc1ccc(F)cc1NC(=O)c1ccc2c(c1)OCO2`, -22.8% (inactive); that for `COC(=O)c1ccccc1NC(NC(=O)c1ccco1)C(=O)c1ccc(C)cc1` (stereo not given), -5.6% (inactive).
Still for that read-out and setting: the same measure for `O=C(CN1CCCCCC1=O)OCc1ncc(-c2ccccc2)o1`: 9.7% (inactive); for `CCCn1nc([N+](=O)[O-])c(C(C#N)c2nc3ccccc3s2)c(Cl)c1=O` (stereo not given): 18.2% (inactive).
Same read-out and setting: the result for `CC(=O)Nc1ccc(S(=O)(=O)n2cnc(C)c2)cc1` reads -13.1% (inactive); that for `Cc1ccn2c(NC(=O)c3ccco3)c(-c3ccccc3)nc2c1`, 3.4% (inactive); that for `CCN(CC)C(=O)CN(c1ccc(Cl)cc1)S(=O)(=O)c1ccccc1`, -3.1% (inactive).
As for `Nc1sccc1C(=O)c1ccc(Cl)cc1`, the inhibition is -3.9% (inactive).
Still for that read-out and setting: the same measure for `C/C(=C\C(=O)c1cccnc1)Nc1ccc(C)c(C)c1`: -15.6% (inactive); for `CC1(C)OC(=O)C(=NNc2ccc(O)cc2)C(=O)O1`: -6.2% (inactive).
With `O=C1C2CCCN2C(c2cccnc2)N1c1ccc(Cl)c(Cl)c1` (stereo not given), the inhibition was -2.6% (inactive).
Same read-out and setting: the result for `COC(=O)c1ccc(-n2nnnc2SCC(=O)N2CCCCC2)cc1` reads 0.2% (inactive); that for `Cn1c(NCc2c[nH]c3ccccc23)nc2ccccc21`, 18% (inactive); that for `C=CCn1c(N2CCCC2)nc2c1c(=O)[nH]c(=O)n2C`, 7.9% (inactive).
Still for that read-out and setting: the same measure for `CC(C)(CO)NC(=O)CCCOc1ccc(Cl)cc1Cl`: -18.9% (inactive).
`Nc1ccccc1NC(=O)c1ccccc1N`: the inhibition is -3.2% (inactive).
The same measure, in the same setting: the result for `CC(C)C(=O)N1CCN(c2nc(-c3ccccc3)c3c(c2C#N)CC(C)(C)OC3)CC1` reads 5.1% (inactive).
The same measure, in the same setting: the result for `COc1cc2c3c(c1OC)-c1cc(O)ccc1CC3NCC2` (stereo not given) reads -7.7% (inactive); that for `CSc1ccc(S(=O)(=O)Nc2ccc3c4c(cccc24)CC3)cc1`, 17.6% (inactive).
On the same count and under the same terms, the same measure for `Cc1cccc(C(=O)Oc2ccccc2C2C[C@]3(C)CC(=O)NC3N2C(=O)c2cccc(C)c2)c1` (stereo not given in full): -2.5% (inactive).
Turning to `O=C(Cc1ccc(-n2cccc2)cc1)NC1CCCCCC1`, the inhibition is 5.8% (inactive).
Regarding `CC(Sc1nc(N)cc(=O)[nH]1)C(=O)NC1CCCCC1` (stereo not given), the inhibition was -7.6% (inactive).
On the same count and under the same terms, the result for `COC(=O)C1C(=O)C2=C(CC1C)NC(=O)CC2c1cccc(C)c1` (stereo not given) reads -3.9% (inactive); that for `Cc1ccccc1-c1cc(-c2ccccc2O)on1`, 25.2% (inactive).
The same measure, in the same setting: the same measure for `COc1ccc(-c2c/c(=N\c3nc(-c4ccccc4)c(C)s3)c3ccccc3o2)cc1O`: 34.3% (inactive).
With `Cn1nc(C(=O)NCC2CCCO2)c2ccccc2c1=O` (stereo not given), the inhibition is -9% (inactive).
As for `COc1ccc(Nc2nc(N3CCCC3)nc3ccccc23)c(OC)c1`, the inhibition was 12.2% (inactive).
Still for that read-out and setting: the result for `CCCOC(=O)c1ccc(NC(=O)Oc2ccccc2)cc1` reads -2.5% (inactive).
Same read-out and setting: the same measure for `Cc1cnc(NC(=O)C2CCCC2)s1`: 14.1% (inactive); for `Cc1c(Cl)cccc1-n1ccnc1SCC(=O)O`: -7.8% (inactive).
Still for that read-out and setting: the result for `COc1ccc(Cl)c(NC(=O)Nc2c(C)n(-c3ccccc3)c(=O)n2C)c1` reads -17.4% (inactive); that for `NC(=O)c1c(NC(=O)Cc2cccs2)sc2c1CCC2`, -16.5% (inactive); that for `Cc1ccc(S(=O)(=O)Cn2nnnc2C(C(C)C)N2CCN(c3nc4ccccc4s3)CC2)cc1` (stereo not given), -0.6% (inactive).
On to `CC(=O)c1cccc(NC(=O)c2cc(-c3ccc(F)cc3)on2)c1`, for which the inhibition is -10.4% (inactive).
In the case of `N#Cc1c(NCc2ccccc2)ccnc1NCc1cccnc1`, the inhibition is -17.4% (inactive).
`O=C(CSc1nc2ccccc2s1)NNC(=S)Nc1ccc(Br)cc1`: the inhibition is 1.8% (inactive).
Regarding `C=CCNC(=O)c1nn2cccnc2c1Cl`, the inhibition was 3.3% (inactive).
On the same count and under the same terms, the result for `CCCC(C(=O)NC1CCCC1)N(CCCN1CCOCC1)C(=O)c1snc(C(N)=O)c1N` (stereo not given) reads 4.4% (inactive); that for `CC(=O)Nc1ccc(NC2(C)C(=O)c3ccccc3C2=O)cc1`, -3.5% (inactive); that for `COc1ccc(NC(=O)N2CCn3c2nc2ccccc23)cc1`, 13% (inactive).
The same measure, in the same setting: the same measure for `Cc1cc(OCc2ccc(F)cc2)nc(-c2ccccc2O)n1`: -12.1% (inactive); for `CN(C)c1nc(N(C)C)nc(N(C#N)CCOc2ccccc2)n1`: -3.1% (inactive).
Still for that read-out and setting: the same measure for `CCN(Cc1cc2cc(C)ccc2[nH]c1=O)C(=O)c1cccc(OC)c1`: -11.5% (inactive); for `Cc1ccc(-n2nc3ccc(NC(=O)/C=C/c4ccco4)cc3n2)cc1C`: 14% (inactive); for `COC(=O)Sc1nc(N2CCOCC2)c2c(c1C#N)CC(C)(C)OC2`: -5.9% (inactive).
As for `CCn1c(SCC(=O)N2CCN(c3cccc(Cl)c3)CC2)nc2ccccc2c1=O`, the inhibition was 8.3% (inactive).
Consider `Cc1cc(C)cc(OCCCCCNCCO)c1`, for which the inhibition is -9.9% (inactive).
The same measure, in the same setting: the result for `COC(=O)c1sccc1NC(=O)c1ccc(Br)s1` reads 4% (inactive); that for `COc1ccc(-c2cc3ccc(OCc4nn[nH]n4)cc3oc2=O)cc1OC`, -18.3% (inactive).
The same measure, in the same setting: the result for `Cc1ccc(NC(=O)c2oc3c(c2C)C(=O)CC(C)(C)C3)cc1` reads -0.4% (inactive); that for `Oc1ccc(N2CCN(c3ncnc4sc5c(c34)CCC5)CC2)cc1`, 10.1% (inactive).

The same experiment, now with this note: TNFa-stimulated cells, VCAM1 expression imaging; cell count; at 10 µM; stronger effect = lower value.
`COc1ccc(-c2c/c(=N\c3nc(-c4ccccc4)c(C)s3)c3ccccc3o2)cc1O` yielded a cell count of 98%.

These data come from PubChem BioAssay AID1013 (Columbia University Molecular Screening Center, 2008).
